Source: US20220324862A1, “PYRIDOPYRIMIDINONE COMPOUNDS” (Acerand Therapeutics (USA) Limited, priority 2021, published 2022)

Assays:
NCI-H1975 cells = assay: 3D cell proliferation assay; assay type: cell-based; settings: Homo sapiens, ultra low attachment plate, 96 hours, 3D CTG
Procedure: This assay supports the molecular mode of action of compounds. Low IC50 values are indicative of high potency of the SOS1 inhibition. […] This supports the molecular mode of action of the SOS1 inhibitors as selectively targeting cancer cells dependent on receptor tyrosine kinase-RAS/SOS1-family protein function. Cell proliferation assays were performed in three-dimensional (3D) anchorage-independent conditions in 96 well ultra-low attachment plate with the following human cell lines:
NCI-H1975: human non-small cell lung cancer (NSCLC) with wild type KRAS and EGFR L858R/T790M mutation;
Cell lines were purchased from the American Type Culture Collection (ATCC), NCI, or European Collection of Authenticated Cell Cultures (ECACC). All cell lines were maintained in RPMI-1640 or DMEM with 10% heat inactivated fetal bovine serum.
Cells growing in log phase were detached with Gibco™ TrypLE™ Express Enzyme and plated in 96 well ultra low attachment plate at 15000 to 20000 cells/well in 100 μl of media. After overnight incubation at 37° C. and 5% CO2, the cells were treated with compounds (50 μL/well) at the final concentrations spanning 1 nM to 20 μM. Cells were incubated at 37° C., 5% CO2 and 95% humidity incubator for 96 hours. At the end of incubation, a 3D CTG reagent from Promega was added to each well according to vendors recommendation and mixed for 10 minutes in dark. The luminescence signals were determined using Biotek plate reader. The data was fitted using a sigmoidal curve analysis program (GraphPAD Prism) with variable hill slope.

[1] = system: cellular pERK in NCI-H1975 cells (EGFR/L858R-T790M); assay: pERK Potency Assay; assay type: cell-based; settings: Homo sapiens, 1 hour incubation, Western blot, read-out: IC50 value, cellular pERK level
From the text: The purpose of this assay is to measure the ability of test compounds to inhibit SOS1 function in cells. SOS1 activates RAS proteins by catalyzing the conversion of RAS-GDP to RAS-GTP in response to receptor tyrosine kinase activation. Activation of RAS induces a sequence of cellular signaling events that results in increased phosphorylation of ERK at Threonine 202 and Tyrosine 204 (pERK). The procedure described below measured the level of cellular pERK in response to test compounds in NCI-H1975 cells (EGFR/L858R-T790M).
NCI-H1975 cells were grown and maintained using media and procedures recommended by the ATCC. On the day prior to compound addition, cells were plated in 24-well cell culture plates (0.9 ml/well) and grown overnight in a 37° C., 5% CO2 incubator. Test compounds were prepared with 3-fold serial dilutions in DMSO, with a top concentration of 10 mM. On the day of the assay, 100 uL of each test compound diluted at 1:100 in media was added to each well of cell culture plate with final concentrations of the compound spanning 0.5 nM to 10 uM. After the compound was added, the cells were incubated for 1 hour at 37° C., 5% CO2. Following incubation, culture medium was removed, and the cells were washed once with phosphate buffered saline and lysed with lysis buffer (20 mM Tris-HCl, pH 7.5, 150 mM NaCl, 1 mM EDTA, 1 mM EGTA, 0.8% NP-40 plus 2× protease and phosphatase inhibitors). Cellular pERK level was determined using the Western blot analysis and quantified with Liqor software. Signal from Western blot was plotted and IC50 values were determined by fitting a 4-parameter sigmoidal concentration response model.

Row | Structure (SMILES) | IC50 (NCI-H1975 cells) [nM] | IC50 [1] [nM]
1 | C#C[C@@H](Nc1nc(C)nc2cc(=O)n(C3CCOCC3)cc12)c1cccc(C(F)(F)F)c1C [Compound 4, (R)-2-methyl-4-((1-(2-methyl-3-(trifluoromethyl)phenyl)prop-2-yn-1-yl)amino)-6-(tetrahydro-2H-pyran-4-yl)pyrido[4,3-d]pyrimidin-7(6H)-one] | 100 to 500 | < 100
2 | C#C[C@@H](Nc1nc(C)nc2c1cc(C1(OC)CCN(C(C)=O)CC1)c(=O)n2C)c1cccc(C(F)(F)F)c1C [Compound 55, 6-(1-acetyl-4-methoxypiperidin-4-yl)-2,8-dimethyl-4-{[(1R)-1-[2-methyl-3-(trifluoromethyl)phenyl]prop-2-yn-1-yl]amino}-7H,8H-pyrido[2,3-d]pyrimidin-7-one] | < 100 | < 100
3 | C#C[C@@H](Nc1nc(C)nc2c1cc(C1(F)CCN(C(C)=O)CC1)c(=O)n2C)c1cccc(C(F)(F)F)c1C [Compound 56, 6-(1-acetyl-4-fluoropiperidin-4-yl)-2,8-dimethyl-4-{[(1R)-1-[2-methyl-3-(trifluoromethyl)phenyl]prop-2-yn-1-yl]amino}-7H,8H-pyrido[2,3-d]pyrimidin-7-one] | < 100 | < 100
4 | C#C[C@@H](Nc1ncnc2c1cc(C1(OC)CCN(C(C)=O)C1)c(=O)n2C)c1cccc(C(F)F)c1F (stereo partly drawn) [Compound 49, 6-(1-acetyl-3-methoxypyrrolidin-3-yl)-4-{[(1R)-1-[3-(difluoromethyl)-2-fluorophenyl]prop-2-yn-1-yl]amino}-8-methyl-7H,8H-pyrido[2,3-d]pyrimidin-7-one] | < 100 | < 100
5 | C#C[C@@H](Nc1ncnc2c1cc(C1(OC)CCN(C(C)=O)CC1)c(=O)n2C)c1cccc(C(F)F)c1F [Compound 48, (R)-6-(1-acetyl-4-methoxypiperidin-4-yl)-4-((1-(3-(difluoromethyl)-2-fluorophenyl)prop-2-yn-1-yl)amino)-8-methylpyrido[2,3-d]pyrimidin-7(8H)-one] | < 100 | < 100
6 | C#C[C@@H](Nc1ncnc2c1cc(C1(O)CCN(C(C)=O)CC1)c(=O)n2C)c1cccc(C(F)F)c1F [Compound 46, 6-(1-acetyl-4-hydroxypiperidin-4-yl)-4-{[(1R)-1-[3-(difluoromethyl)-2-fluorophenyl]prop-2-yn-1-yl]amino}-8-methyl-7H,8H-pyrido[2,3-d]pyrimidin-7-one] | < 100 | < 100
7 | C#C[C@@H](Nc1ncnc2c1cc(C1(NC(C)=O)CCOCC1)c(=O)n2C)c1cccc(C(F)(F)F)c1C [Compound 58, (R)-N-(4-(8-methy-4-((1-(2-methyl-3-(trifluoromethyl)phenyl)prop-2-yn-1-yl}amino)-7-oxo-7,8-dihydropyrido[2,3-d]pyrimidin-6-yl)tetrahydro-2H-pyran-4-yl)acetamide] | < 100 | < 100
8 | C#C[C@@H](Nc1nc(C)nc2c1cc(C1(O)CCN(C(C)=O)CC1)c(=O)n2C)c1cccc(C(F)(F)F)c1C [Compound 54, 6-(1-acetyl-4-hydroxypiperidin-4-yl)-2,8-dimethyl-4-{[(1R)-1-[2-methyl-3-(trifluoromethyl)phenyl]prop-2-yn-1-yl]amino}-7H,8H-pyrido[2,3-d]pyrimidin-7-one] | < 100 | < 100
9 | C#C[C@@H](Nc1ncnc2c1cc(C1(O)CCN(C(C)=O)C1)c(=O)n2C)c1cccc(C(F)F)c1F (stereo partly drawn) [Compound 43, 6-(1-acetyl-3-hydroxypyrrolidin-3-yl)-4-{[(1R)-1-[3-(difluoromethyl)-2-fluorophenyl]prop-2-yn-1-yl]amino}-8-methyl-7H,8H-pyrido[2,3-d]pyrimidin-7-one] | 100 to 500 | < 100
10 | C#C[C@@H](Nc1ncnc2c1cc(C1(NC(C)=O)CCN(C(C)=O)CC1)c(=O)n2C)c1cccc(C(F)(F)F)c1C [Compound 57, (R)-N-(1-acetyl-4-(8-methy-4-((1-(2-methyl-3-(trifluoromethyl)phenyl)prop-2-yn-1-yl)amino)-7-oxo-7,8-dihydropyrido[2,3-d]pyrimidin-6-yl)piperidin-4-yl)acetamide] | < 100 | < 100
11 | C#C[C@@H](Nc1nc(C)nc2cc(=O)n(C3(C(F)F)CC3)cc12)c1cccc(C(F)(F)F)c1C [Compound 9, (R)-6-(1-(difluoromethyl)cyclopropyl)-2-methyl-4-((1-(2-methyl-3-(trifluoromethyl)phenyl)prop-2-yn-1-yl)amino)pyrido[4,3-d]pyrimidin-7(6H)-one] | < 100 | 100 to 500
